Source: US7166582B2, “Antiallergic composition” (J-Oil Mills, Inc., priority 2003, dated 2007)

Tests used:
[1] = tested on: dermatitis induced by repeated application of hapten on an NC/Nga mouse; test: Performance Evaluation Test 1: dermatitis induced by repeated application of hapten (PiCl) on NC/Nga mice; format: in vivo, NC/Nga Tnd Crj male mice; conditions: 0.5% in AIN93G feed; for score of dermatitis (progress of the atopic dermatitis): PiCl induction once a week for five weeks, vs control group, FIGS. 1 and 2
Procedure: The performance of stachyose mixed in livestock feeds was evaluated against the dermatitis induced by repeated application of hapten on an NC/Nga mouse frequently used as an atopic dermatitis model animal (M. Okada et al., Oyo Yakuri/Pharmcometrics, vol. 59, 135–139 (2000)).
(§1) NC/Nga Tnd Crj male mice at six weeks of age (purchased from Nihon Charles River) were habituated for two weeks. The animals decided as healthy were used for the experiments after an observation of general conditions and body weight measurement. The mice were divided into three groups so that the body weight was averaged. One group was composed of nine mice. A purified livestock feed (AIN93G produced by Oriental Yeast Co.) was used as a basic feed. The mice in Group 1 (a control group) was fed with the purified feed, while the mice in Groups 2 and 3 were fed with a feed prepared by adding the test samples as shown In Table 1 in the basic feed.
Stachyose used in this test was purified to a purity of 98% by ion exchange chromatography after extracting from soybeans with 70% ethanol. Saccharose used in this test was purchased from Wako Junyaku Kabushiki Kaisha.
The mice at eight weeks of age were used for sensation as follows. […]
The symptoms of the atopic dermatitis were observed as follows. The skin condition was observed twice a week starting from a day before the first induction, and the following items were evaluated based on the criteria of clinical syndromes of the human atopic dermatitis. […]
(§2) The score of dermatitis, serum total IgE concentration, and the average body weight and standard deviation thereof were calculated. The significant difference was evaluated by the Student's t-test. A significance level of 5% was evaluated as significant, and the results of the Student's t-test were expressed by dividing into a level of less than 5% (P<0.05) and less than 1% (P<0.01).

IgE = conditions: Japanese Patent Application Laid-open No. 2001-288093; cited from earlier work
atopic dermatitis = conditions: Japanese Patent Application Laid-open No. Hei 11-255656; cited from earlier work
[2] = tested on: conventional grade NC/Nga mice that spontaneously start the atopic dermatitis; test: Performance Evaluation Test 2: spontaneous atopic dermatitis in conventional grade NC/Nga mice; format: in vivo, Conventional grade female NC/Nga mice; conditions: feed supplemented with 1% stachyose
Source text: The effect of stachyose on the dermatitis was investigated using conventional grade NC/Nga mice that spontaneously start the atopic dermatitis without applying any haptens (H. Matsuda et al., International Immunology, vol. 9, 461–466 (1997)).
Conventional grade female NC/Nga mice at four weeks of age (purchased from Nihon SLC) were habituated for one week. The mice were divided into two groups so that the body weight was averaged. One group was composed of six mice. All the mice were freely fed on the purified livestock feed (AIN93G) before grouping, and the stachyose administration group was fed on a feed supplemented with 1% stachyose after grouping. The skin conditions were observed and evaluated once per two weeks from the day of start of grouping. The evaluation method was the same as in performance evaluation method 1.

serum total IgE = test: Serum total IgE concentration by EIA in PiCl-sensitized NC/Nga mice; format: in vivo, NC/Nga Tnd Crj male mice; conditions: 0.5% in AIN93G feed; blood on 43rd day after administration; vs control group; FIG. 4
Source text: as §1
The serum total IgE concentration was measured as follows. The blood was extracted on day four before administration, and on 43 rd day after administration (the day for starting administration is counted as the first day). The blood (200 μL) is sampled from the orbital plexus venosus using a heparinated capillary. […]
as §2

SMILES | score of dermatitis (progress of the atopic dermatitis) [1] | production of IgE (IgE) | anti-atopic dermatitis action (atopic dermatitis) | onset of dermatitis ([2]; 6 to 8 weeks after grouping, control: evident dermatitis on face and ears) | scores of dermatitis ([2]; FIG. 5) | onset of dermatitis ([2]; week four after grouping, control: five of six mice with dermatitis on the face) | level of serum total IgE (serum total IgE) | appearance of the skin (photograph of representative mouse) ([1]; compared with the control group (Group 1), FIG. 3)
OC[C@H]1O[C@@](CO)(O[C@H]2O[C@H](CO)[C@@H](O)[C@H](O)[C@H]2O)[C@@H](O)[C@@H]1O [saccharose, reference compound] | No effects were observed | – | – | – | – | – | – | –
OC[C@H]1O[C@H](OC[C@H]2O[C@H](O[C@]3(CO)O[C@H](CO)[C@@H](O)[C@@H]3O)[C@H](O)[C@@H](O)[C@@H]2O)[C@H](O)[C@@H](O)[C@H]1O [raffinose] | – | has an action for suppressing production of IgE | has an anti-atopic dermatitis action | – | – | – | – | –
OC[C@H]1O[C@H](OC[C@H]2O[C@H](OC[C@H]3O[C@H](O[C@]4(CO)O[C@H](CO)[C@@H](O)[C@@H]4O)[C@H](O)[C@@H](O)[C@@H]3O)[C@H](O)[C@@H](O)[C@H]2O)[C@H](O)[C@@H](O)[C@H]1O [stachyose] | progress of the atopic dermatitis was evidently blocked | – | – | no onset of dermatitis was observed at all | the effect of stachyose is evident | no onset of the dermatitis was observed | does not influence the level of IgE | An evident difference of the appearance of the skin was observed
